ChEMBL document CHEMBL1201862, “PubChem BioAssay data set” (2004)
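In this assay, cells in 96-well plates receive the compound at five concentrations for 48 hours. Endpoints are linearly interpolated between the surrounding concentrations. At the GI50, growth is halved.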 Calls of active or inactive are those of the source. Rule as the data show it: active = GI50 up to about 1.1 µM and inactive = higher.

Assays:
Assay in all cases: growth of human tumour cells (NCI), 48 h
[1] = test system: SR
[2] = test system: EKVX
[3] = test system: OVCAR-3
[4] = test system: SW-620
[5] = test system: HOP-92
[6] = test system: 786-0
[7] = test system: UACC-62
[8] = test system: SNB-19
[9] = test system: SF-539
[10] = test system: UACC-257
[11] = test system: PC-3
[12] = test system: A549
[13] = test system: MDA-MB-231
[14] = test system: NCI-H460
[15] = test system: CAKI-1
[16] = test system: MCF7
[17] = test system: NCI-H23
[18] = test system: Malme-3M
[19] = test system: OVCAR-8
[20] = test system: LOX IMVI
[21] = test system: ACHN
[22] = test system: K562
[23] = test system: HCT-15
[24] = test system: SF-268
[25] = test system: MDA-N
[26] = test system: KM12
[27] = test system: HT-29
[28] = test system: SN12C
[29] = test system: HCC 2998
[30] = test system: SK-MEL-28
[31] = test system: SK-MEL-5
[32] = test system: SK-OV-3
[33] = test system: M14
[34] = test system: NCI-H226
[35] = test system: MOLT-4
[36] = test system: DU-145
[37] = test system: COLO 205
[38] = test system: BT-549
[39] = test system: UO-31
[40] = test system: RPMI-8226
[41] = test system: A498
[42] = test system: HL-60
[43] = test system: IGROV-1
[44] = test system: HCT-116
[45] = test system: Hs-578T
[46] = test system: CCRF-CEM
[47] = test system: T47D
[48] = test system: TK-10
[49] = test system: OVCAR-4
[50] = test system: NCI-H522
[51] = test system: NCI/ADR-RES
[52] = test system: MDA-MB-435
[53] = test system: SF-295
[54] = test system: U-251

Measured: GI50

CC(=O)Nc1ccc(NC(=O)CC(=O)Nc2ccc(NC(C)=O)cc2)cc1
inactive: [1] > 100 µM | [2] > 100 µM | [3] > 100 µM | [4] > 100 µM | [5] > 100 µM | [6] > 100 µM | [7] 5.74 µM | [8] > 100 µM | [9] > 100 µM | [10] > 100 µM | [11] > 100 µM | [12] > 100 µM | [13] > 100 µM | [14] > 100 µM | [15] > 100 µM | [16] > 100 µM | [17] > 100 µM | [18] > 100 µM | [19] > 100 µM | [20] > 100 µM | [21] > 100 µM | [22] > 100 µM | [24] > 100 µM | [25] > 100 µM | [26] > 100 µM | [27] > 100 µM | [28] > 100 µM | [29] 19.4 µM | [30] > 100 µM | [31] > 100 µM | [32] 20.2 µM | [33] > 100 µM | [34] > 100 µM | [35] > 100 µM | [36] > 100 µM | [37] > 100 µM | [38] > 100 µM | [39] > 100 µM | [40] > 100 µM | [41] > 100 µM | [42] > 100 µM | [43] > 100 µM | [44] > 100 µM | [45] > 100 µM | [46] > 100 µM | [47] 32 µM | [48] > 100 µM | [49] > 100 µM | [50] > 100 µM | [51] > 100 µM | [52] > 100 µM | [53] > 100 µM | [54] 32.1 µM
25.8 µM: [23]
